Results: PubChem BioAssay AID602191 (Broad Institute, 2012)
Active and inactive are the calls of the source.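 How the source made its calls: active means fitted curve reaches 40% activation at a concentration no higher than the top valid tested dose; inconclusive means flat fit between 30% and 70% activation, or poor fit; inactive means uptake decrease, flat fit within 30% of zero, the rest.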

target: Scavenger receptor class B member 1 (Mus musculus) (UniProt Q61009); assay: enhancers of DiI-HDL lipid transfer via SR-BI – cell-based, ldlA[mSR-BI] CHO, DiI fluorescence, cherry-pick, dose response (AID 602191); conditions: ldlA[mSR-BI] CHO cells, 3 h, at 35 µM (top of the series);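 further: cell fluorescence from internalized DiI-labeled HDL after washing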;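 on AC40: potency of activators raising HDL uptake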;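 on activation (HDL uptake increase): 0% = median of DMSO wells and 100% = twice the DMSO signal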
Sequence (Q61009 whole entry, looked up): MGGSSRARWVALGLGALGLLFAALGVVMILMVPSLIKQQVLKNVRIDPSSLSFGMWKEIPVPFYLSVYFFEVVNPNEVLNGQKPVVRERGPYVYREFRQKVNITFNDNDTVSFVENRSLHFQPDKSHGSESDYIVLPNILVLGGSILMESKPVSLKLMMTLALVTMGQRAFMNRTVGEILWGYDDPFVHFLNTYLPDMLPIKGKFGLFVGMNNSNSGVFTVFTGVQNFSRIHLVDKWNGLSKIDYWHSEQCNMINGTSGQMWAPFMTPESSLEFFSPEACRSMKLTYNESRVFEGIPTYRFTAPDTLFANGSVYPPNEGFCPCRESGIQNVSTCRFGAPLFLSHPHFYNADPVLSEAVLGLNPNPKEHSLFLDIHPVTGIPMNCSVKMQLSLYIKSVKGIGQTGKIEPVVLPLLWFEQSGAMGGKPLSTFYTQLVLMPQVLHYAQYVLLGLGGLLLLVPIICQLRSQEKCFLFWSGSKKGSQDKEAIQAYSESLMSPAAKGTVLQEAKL

SMILES	activation (HDL uptake increase)
COc1ccc(N2CCN(C(=O)NC(=O)c3ccc(Cl)cc3)CC2)cc1	-6.64% (inactive)
Cn1c(C(=O)N2CCC(C(N)=O)CC2)cc2cc(Cl)ccc21	-7.74% (inactive)
CN(C(=O)c1ccccc1Cl)c1ccccc1C(=O)NCc1ccccc1	-10.9% (inactive)
CC(CN(C)Cc1ccccc1)OC(=O)c1cccc(F)c1 (stereo unspecified)	-8.97% (inactive)
CCOC(=O)c1csc(NC(=O)CN2CCN(C)CC2)n1	10.4% (inactive)
Cc1cc(Cl)ccc1OCC(=O)OCC(=O)N1CCC(C(N)=O)CC1	-16.7% (inactive)
Cc1ccc(CS(=O)Cc2ccc(C(=O)NCc3ccccc3)o2)cc1 (stereo unspecified)	4.99% (inactive)
N#CCCN1CCN(S(=O)(=O)c2ccc(C3CCCCC3)cc2)CC1	12% (inactive)
O=C(COC(=O)C1CCN(/C=C/C(=O)C(F)(F)F)CC1)Nc1cccc(F)c1	-7.38% (inactive)
Cc1ccc(N(CC(=O)N2CC(=O)Nc3ccccc32)S(=O)(=O)c2ccc3c(c2)OCCO3)cc1	-11.9% (inactive)
Cc1ccccc1-c1nnc(SCC(=O)Nc2c(C)n(C)n(-c3ccccc3)c2=O)o1	-18.8% (inactive)
Nc1nc(SCC(=O)OCc2ccccc2)[nH]c(=O)c1NC(=O)c1ccco1	4.16% (inactive)
CCN(CC)C(=O)c1ncn(Cc2ccccc2)c1C(=O)N(CC)CC	-3.26% (inactive)
CN(C)c1nc(C#N)nc(N2CCOCC2)n1	4.22% (inactive)
COCCNC(=O)c1onc(CSc2ccc(F)c(F)c2)c1C(=O)O	-4.96% (inactive)
CCN(CC(=O)Nc1c(F)cccc1F)C(=O)C1CCN(S(=O)(=O)c2ccc(F)cc2)CC1	11.6% (inactive)
Cc1ccc(CNC(=O)CCNC(=O)c2ccc(Br)o2)cc1	-10.8% (inactive)

SMILES	activation (HDL uptake increase)
O=C(CCCc1nc2ccccc2s1)NCc1ccccc1	-3.71% (inactive)
CCCC(=O)Nc1cc(C(=O)O)ccc1S(=O)(=O)c1ccc(C)cc1	1.17% (inactive)
O=C(c1ccc(Cl)cc1)C1CCCN(Cc2ccc3ncccc3c2)C1 (stereo unspecified)	12.3% (inactive)
CCOc1ccc(S(=O)(=O)NCCc2cn3ccccc3n2)cc1	2.16% (inactive)
Cc1cc(S(=O)(=O)NCCc2ccccc2)c(C)s1	-1.19% (inactive)
O=C(NCc1cccs1)C1CCCN(C(=O)Nc2ccccc2)C1 (stereo unspecified)	7.76% (inactive)
Nc1ncnc2c1ncn2[C@@H]1O[C@H](CNCc2cccn2-c2nccs2)[C@@H](O)[C@H]1O	10.3% (inactive)
CC1CCC(NC(=O)CCNS(=O)(=O)c2ccccc2)CC1 (stereo unspecified)	10.2% (inactive)
CCOC(=O)C1CCCN(S(=O)(=O)c2ccc3ccccc3c2)C1 (stereo unspecified)	-7.01% (inactive)
CN(C)CCCNC(=O)/C=C/c1ccc2c(c1)OCO2	-4.26% (inactive)
COc1ccc(CCN2CC(C(=O)NCc3cnn(C(C)C)c3)CCC2=O)cc1 (stereo unspecified)	-1.83% (inactive)
O=C(Nc1ccc(S(=O)(=O)Nc2ccccc2F)cc1)N1CCCCC1	-17.5% (inactive)
O=S(=O)(Nc1ccccc1OC(F)F)c1ccc(S(=O)(=O)N2CCCC2)cc1	-11.8% (inactive)
COc1ccc(C(CNS(=O)(=O)c2ccc(NC(C)=O)c(OC)c2)N2CCCCC2)cc1 (stereo unspecified)	5.72% (inactive)
O=C1[C@H]2[C@@H](c3ccc(F)cc3)N3C(=O)N(c4ccc(Br)cc4)C(=O)[C@@]3(Cc3ccccc3)[C@H]2C(=O)N1C1CCCCC1	6.23% (inactive)
CCn1c(COC(=O)CNC(=O)c2ccccc2)nc2cc(S(=O)(=O)N(C)C)ccc21	-13.2% (inactive)
CCCCCC(=O)Nc1cc(S(=O)(=O)N2CCOCC2)ccc1N1CCCCC1	-0.494% (inactive)

same assay, conditions: ldlA[mSR-BI] CHO cells, DiI-HDL uptake fluorescence, 3 h

SMILES	AC40
COc1ccccc1OCCc1nnc(N)s1	> 35 µM (inactive)
O=C(C[C@H]1C[C@H](C(=O)N2CCCCC2)[C@@]2(CCc3ccccc3)c3[nH]c4ccc(Cl)cc4c3CCN2C1=O)NCc1cccc(C(F)(F)F)c1	> 35 µM (inactive)
CN(C)C(=O)CCc1ccc2c3c([nH]c2c1)[C@]1(CCC2CCCC2)[C@@H](C(=O)N2CCOCC2)C[C@H](CC(=O)NCC24CC5CC(CC(C5)C2)C4)C(=O)N1CC3	> 35 µM (inactive)
COc1ccc(OC)c(S(=O)(=O)NCCCN2CCCC2=O)c1	> 35 µM (inactive)
CC(C)(C)NC(=O)C[C@H]1C[C@H](C(=O)N2CCOCC2)[C@@]2(CCC3CCCC3)c3[nH]c4ccc(Cl)cc4c3CCN2C1=O	> 35 µM (inactive)
CC(C)NC(=O)C1(O)c2ccccc2NC(=O)N1c1ccc(Cl)c(Cl)c1 (stereo unspecified)	> 35 µM (inactive)
Cc1ccc(OCC(=O)OC(C)C(=O)NC2CCCCC2C)cc1C (stereo unspecified)	> 35 µM (inactive)
